Source: patent US7083969B2, “Serratia marcescens strain” (Korea Research Institute of Bioscience and Biotechnology, priority 1997, dated 2006)

Tests used:
B lymphocyte [1] = test: Lipopolysaccharide-induced B lymphocyte proliferation (DNA synthesis); assay type: cell-based, mice; conditions: for Proliferation (%) B cell: three days
Source text: (§1) Germ-free test animals, mice BDF1 and B6C3F1, obtained from Genetic Resources Center, Korean Research Institute of Bioscience and Biotechnology in the Korean Institute of Science and Technology, were used for the assay of the immunosuppressive activity of prodigiosin. […] At such concentrations as show no cytotoxic effects, prodigiosin cannot suppress the immune response of B lymphocytes. […] This selective immunosuppression for T lymphocytes is not ascribed to the selective cytotoxicity for T lymphocytes. The same immunosuppression results as in the ex vivo experiments were obtained in in vivo experiments. When T lymphocyte activity was measured by use of a graft versus host reaction and a T cell-dependent antibody producing reaction, the prodigiosin suppressed the immune response, but exerted no toxicity on animals. Therefore, the immunosuppressive activity of the prodigiosin is thought to be attributed to the selective suppression for T lymphocyte activity.
Three standard substances which induce lymphocytes to proliferate were employed to measure the effect of the prodigiosin on proliferation of lymphocytes. 5 μg/ml of lipopolysaccharide were used to induce B lymphocyte to proliferate, 5 μg/ml of Concanavalin A for T lymphocyte and 5 μg/ml of Pokeweed mitogen for B and T lymphocytes, both. Prodigiosin was added, together with the proliferation-inducing substance. Three days after the addition, the proliferation effect was monitored by measuring the amount of DNA synthesized. In order to exclude the cytotoxicity of prodigiosin, it was used at a concentration of not more than 100 nM. In Table 2, the proliferation percentages mean the proliferated amounts of prodigiosin-treated lymphocytes relative to that of an non-treated group. As shown, the suppression percentage effected by prodigiosin in amounts of 30–100 nM reaches up to 96–98% for the T lymphocyte induced by concanavalin A while the proliferation of B lymphocyte induced by lipopolysaccharide and the proliferation of B/T lymphocytes induced by pokeweed mitogen are suppressed to the extent of 13–19% and 45–83%, respectively.

B lymphocyte [2] = test: Antibody production of B lymphocytes stimulated with lipopolysaccharide; assay type: cell-based, mice; conditions: for effect on antibody production / immune response of B lymphocytes (words): non-cytotoxic concentration range (3-100 nM)
Source text: as §1
(§2) The influence of prodigiosin on the functions of lymphocytes was measured using three reaction systems. First, the ability of B lymphocyte to proliferate in response to lipopolysaccharide stimulus was assessed. For this, on the third day after stimulation with lipopolysaccharide, the antibody production of the B lymphocyte was measured. When B lymphocytes are stimulated with lipopolysaccharide, they can produce antibodies without the aid of T lymphocyte. Second, a mixed lymphocyte reaction was induced in order to assess the effect on T-cell response. The reaction needs no aids from the B lymphocyte. On the third day after two types of heteroimmune cells, which are different from each other in histocompatibility antigen, were mixed to stimulate the activity of T lymphocytes, the T-cell response-was assessed. Third, the T-cell dependent antibody producing reaction was utilized to assess the effect of prodigiosin on the simultaneous immune response of both of the B and T lymphocytes. This reaction requires the functions of B and T lymphocytes, simultaneously. On the fifth day after immunization of the lymphocytes with the red blood cells of sheep, their antibody production ability was assessed.
(§3) In Table 3, the values are relative to the immune response of the lymphocytes untreated with prodigiosin.

T lymphocytes [3] = test: Mixed lymphocyte reaction (T-cell response); assay type: cell-based, mice; conditions: for Immune Response (%) T cell: third day
Source text: as §1, §2, §3

B lymphocytes = test: Selective cytotoxicity: proportion of B lymphocytes after treatment; assay type: cell-based, mice; conditions: for Proliferation (%) B cell: proportion of the cells
Source text: as §1
(§4) Whether the selective immunosuppression of prodigiosin for T cells is attributed to the selective cytotoxicity for T cells or not was assayed by measuring the proportion of the cells. On the third day after treatment of the immune cells with prodigiosin, the number of the cells was counted. Because T lymphocytes consist of CD4 T cell (helper T cell) and CD8 T cell (cytotoxic T cell), the proportion of T and B lymphocytes was calculated in this Example.

[4] = tested on: CD4 T cell (helper T cell); test: Selective cytotoxicity: proportion of CD4 T cells after treatment; assay type: cell-based, mice; conditions: proportion of the cells
Source text: as §1, §4

[5] = Body weight of injected mice in graft versus host experiment (toxicity); assay type: in vivo
Experimental: A graft versus host reaction was utilized for the in vivo assay of prodigiosin's immunosuppression. The graft versus host reaction enables an assessment of the immune response of T lymphocytes. On the sixth day after transplantation of the T lymphocytes of BDF1 mice different in histocompatibility antigen, the lymphatic nodes were measured for weight, thereby assessing the immune response of T lymphocyte to the grafted heteroantigens. The prodigiosin was peritoneally injected at a dose of 30–100 mg per kg of body weight for five days while cyclophosphamide, as a positive control, was peritoneally injected at a dose of 100 mg/kg for five days. The body weights of the injected mice were measured to compare the toxicity of prodigiosin with that of cyclophosphamide. […] As for the body weight, it was not changed in the mice injected with prodigiosin at an effective concentration.

T lymphocytes [6] = test: T cell-dependent immune response in vivo (antibody producing cells after sheep red blood cell immunization); design: species or system mice; conditions: for Immune Response (%): 4 days after immunization
Source text: as §1
(§5) A T cell-dependent immune response reaction was used to assess the influence of prodigiosin on T lymphocytes in vivo. Test animals were immunized with sheep red blood cells by peritoneal injection. 4 days after the immunization, the number of the antibody producing cells was counted. Prodigiosin was peritoneally injected everyday. Based on the number of the […] cells in the non-treated animals, the influence of prodigiosin on T lymphocytes in vivo was assessed as percentage. Also, the weight ratio of the spleen to the body was measured to assay the toxicity of prodigiosin to the animals. Cyclophosphamide was used as a positive control.

[7] = Weight ratio of the spleen to the body (toxicity); assay type: in vivo, mice
Experimental: as §5

CD8 T lymphocytes = test: Immunosuppressive activity on CD8 T lymphocytes; assay type: cell-based
CD4 T lymphocytes = test: Immunosuppressive activity on CD4 T lymphocytes; assay type: cell-based
[8] = 3 nM, third day after treatment

CCCCCC1=C/C(=C/c2[nH]c(-c3ccc[nH]3)cc2OC)N=C1C [Prodigiosin, prodigiosin]
Proliferation (%) B cell (B lymphocyte [1]; 3 nM, 5 μg/ml lipopolysaccharide, relative to non-treated group): 101%
Proliferation (%) B cell (B lymphocyte [1]; 10 nM, lipopolysaccharide): 105%
Proliferation (%) B cell (B lymphocyte [1]; 30 nM, lipopolysaccharide): 87%
Proliferation (%) B cell (B lymphocyte [1]; 100 nM, lipopolysaccharide): 81%
suppression of proliferation of B lymphocyte induced by lipopolysaccharide (B lymphocyte [1]; 30–100 nM): 13–19%
effect on proliferation of B lymphocytes (B lymphocyte [1]; non-cytotoxic concentrations): no influence
Immune Response (%) B cell (B lymphocyte [2]; 3 nM, antibody production, third day after lipopolysaccharide, relative to untreated lymphocytes): 116%
Immune Response (%) B cell (B lymphocyte [2]; 10 nM, third day): 108%
Immune Response (%) B cell (B lymphocyte [2]; 30 nM, third day): 100%
Immune Response (%) B cell (B lymphocyte [2]; 100 nM, third day): 97%
effect on antibody production / immune response of B lymphocytes (words) (B lymphocyte [2]): no influence
effect on antibody production / immune response of B lymphocytes (words) (B lymphocyte [2]; listed as prodigiosin): not at all
Immune Response (%) T cell (T lymphocytes [3]; 3 nM, mixed lymphocyte reaction, relative to untreated lymphocytes): 111%
Immune Response (%) T cell (T lymphocytes [3]; 10 nM): 110%
Immune Response (%) T cell (T lymphocytes [3]; 30 nM): 67%
Immune Response (%) T cell (T lymphocytes [3]; 100 nM): 30%
immune response in which T lymphocytes are involved (T lymphocytes [3]; Table 3 concentration range): significantly suppressed
Proliferation (%) B cell (B lymphocytes; [8]): 47%
Proliferation (%) B cell (B lymphocytes; 10 nM, third day): 49%
Proliferation (%) B cell (B lymphocytes; 30 nM, third day): 50%
Proliferation (%) B cell (B lymphocytes; 100 nM, third day): 52%
selective cytotoxicity for B, CD4 T and CD8 T lymphocytes (B lymphocytes; B, CD4 T and CD8 T cell proportions, 3-100 nM, third day): no selective cytotoxicity
Proliferation (%) CD4 T cell [4, 8]: 31%
Proliferation (%) CD4 T cell ([4]; 10 nM, third day): 31%
Proliferation (%) CD4 T cell ([4]; 30 nM, third day): 31%
Proliferation (%) CD4 T cell ([4]; 100 nM, third day): 29%
Body weight ([5]; 10 mg/kg peritoneally for five days): 20 g
Body weight ([5]; 30 mg/kg peritoneally for five days): 21 g
body weight change ([5]; at an effective concentration): not changed
Immune Response (%) (T lymphocytes [6]; 10 mg/kg peritoneally everyday, antibody producing cells vs non-treated animals): 32%
Immune Response (%) (T lymphocytes [6]; 30 mg/kg peritoneally everyday): 27%
number of the antibody-producing cells (T lymphocytes [6]; peritoneal injection everyday): significantly reduced
Wt. Ratio of spleen/body (%) ([7]; 10 mg/kg peritoneally everyday): 95%
Wt. Ratio of spleen/body (%) ([7]; 30 mg/kg peritoneally everyday): 84%
toxicity judged by weight ratio of the spleen to the body ([7]; at effective concentrations): no toxicity
immunosuppressive activity on CD8 T lymphocytes (CD8 T lymphocytes): has an immunosuppressive activity
immunosuppressive activity on CD4 T lymphocytes (CD4 T lymphocytes): has an immunosuppressive activity
